A word on the pIC50: it is the IC50 on a negative log10 scale, so that one unit is a factor of ten.

The values that follow come from US10239843B2 (CANCER RESEARCH TECHNOLOGY LIMITED, priority 2014, dated 2019).

One assay relates to PARG in HeLa cell line. Nature of the assay: PARG cell assay (PAR chain immunofluorescence after MMS). The format is cell-based. The following applies: HeLa cells. The procedure, abridged:
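HeLa cells were dosed with compound for 1 h, then given MMS at 50 μg/mL final for a further hour. Cells were methanol-fixed, permeabilised and stained overnight at 4° C with anti-PAR monoclonal antibody. Retained nuclear PAR chains, detected by indirect immunofluorescence, indicate PARG inhibition.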

The target of a further assay is Human Full Length PARG (Homo sapiens (Human), UniProt Q86W56). The experiment in a line: PARG enzyme assay (TR-FRET). The class given is biochemical.
The mark [1] stands for this setting: Homo sapiens, MMS treatment, read-out: PARG Cell IC50.
Setting [2] is: MMS 50 μg/mL, read-out: PARG Cell IC50 Geomean.
Setting [3] is: read-out: PARG Biochem IC50 Geomean.
Setting [4] is: Homo sapiens, MMS 50 μg/mL, read-out: PARG Cell IC50 Geomean.
[5] abbreviates: MMS treatment, read-out: PARG Cell IC50.

SMILES strings stand for the structures. pIC50: −log10 of the molar value. Read-outs that look alike come from different tables or passages of the source.

Human Full Length PARG, sequence (Q86W56 whole entry): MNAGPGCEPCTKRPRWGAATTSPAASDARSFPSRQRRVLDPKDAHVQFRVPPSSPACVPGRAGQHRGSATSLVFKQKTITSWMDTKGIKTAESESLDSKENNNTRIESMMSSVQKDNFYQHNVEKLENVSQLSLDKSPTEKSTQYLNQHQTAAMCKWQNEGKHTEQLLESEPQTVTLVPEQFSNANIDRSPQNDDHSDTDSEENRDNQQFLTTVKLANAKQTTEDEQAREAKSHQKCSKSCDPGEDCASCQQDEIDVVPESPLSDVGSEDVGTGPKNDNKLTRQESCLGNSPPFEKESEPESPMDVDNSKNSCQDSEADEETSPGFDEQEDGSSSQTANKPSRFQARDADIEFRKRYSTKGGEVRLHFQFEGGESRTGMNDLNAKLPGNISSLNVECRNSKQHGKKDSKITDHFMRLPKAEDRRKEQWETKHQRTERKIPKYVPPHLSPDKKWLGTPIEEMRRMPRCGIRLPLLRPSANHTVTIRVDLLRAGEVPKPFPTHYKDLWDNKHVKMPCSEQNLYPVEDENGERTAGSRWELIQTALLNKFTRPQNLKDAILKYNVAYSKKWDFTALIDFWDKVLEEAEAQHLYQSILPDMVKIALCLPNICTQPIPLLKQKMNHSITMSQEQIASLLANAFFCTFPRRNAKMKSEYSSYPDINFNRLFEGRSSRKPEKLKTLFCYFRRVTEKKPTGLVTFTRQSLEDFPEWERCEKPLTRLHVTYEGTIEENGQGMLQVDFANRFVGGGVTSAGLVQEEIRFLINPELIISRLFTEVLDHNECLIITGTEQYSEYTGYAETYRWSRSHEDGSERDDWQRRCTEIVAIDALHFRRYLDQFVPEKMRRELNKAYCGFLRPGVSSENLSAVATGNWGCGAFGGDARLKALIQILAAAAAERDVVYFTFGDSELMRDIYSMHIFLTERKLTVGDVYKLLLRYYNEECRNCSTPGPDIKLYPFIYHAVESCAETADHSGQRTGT

As for `Cc1nc(Cn2c(=O)n(Cc3cnn(C)c3)c(=O)c3cc(S(=O)(=O)NC4(CF)CC4)ccc32)c[nH]1` [Example 568, N-[1-(Fluoromethyl)cyclopropyl]-1-[(2-methyl-1H-imidazol-4-yl)methyl]-3-[(1-methylpyrazol-4-yl)methyl]-2,4-dioxo-quinazoline-6-sulfonamide], the pIC50 is 5.28 with PARG in HeLa cell line (setting [1]) and 7.00 on Human Full Length PARG (read-out: PARG Biochem IC50).

Regarding `Cc1cc(CN2C(=O)c3cccc4cc(S(=O)(=O)NC5(C)CC5)cc(c34)C2=O)on1` [Example 464, N-(1-Methylcyclopropyl)-2-[(3-methylisoxazol-5-yl)methyl]-1,3-dioxo-benzo[de]isoquinoline-5-sulfonamide], the pIC50 in the assay with PARG in HeLa cell line (setting [1]) is 5.96; on Human Full Length PARG (read-out: PARG Biochem IC50) it was 5.98.

Consider `Cc1cc(Cn2c(=O)c(Cc3cnn(C)c3)cc3cc(S(=O)(=O)NC4(C)CC4)ccc32)n(C)n1` [Example 492, 1-[(2,5-Dimethylpyrazol-3-yl)methyl]-N-(1-methylcyclopropyl)-3-[(1-methylpyrazol-4-yl)methyl]-2-oxo-quinoline-6-sulfonamide], for which the pIC50 was 6.13 with PARG in HeLa cell line (setting [1]) and 6.31 at Human Full Length PARG (read-out: PARG Biochem IC50).

On to `Cn1c(=O)c2cc(S(=O)(=O)NC3(C)CC3)ccc2n(Cc2cncs2)c1=O` [Example 143], for which the pIC50 was 6.27 with PARG in HeLa cell line (setting [2]) and 6.47 at Human Full Length PARG (setting [3]).

As to `Cc1cc(COc2nc3ccc(S(=O)(=O)NC4(C)CC4)cc3c(=O)n2Cc2cnc(C)s2)n(C)n1` [Example 164], the values for the negative logarithm of the IC50 (pIC50) in the assay with PARG in HeLa cell line (setting [2]) and on Human Full Length PARG (setting [3]) were 6.11 and 6.46, respectively.

`CCn1c(=O)n(Cc2cnn(C)c2)c(=O)c2cc(S(=O)(=O)NC3(C)CC3)c(F)cc21` [Example 389, 1-Ethyl-7-fluoro-N-(1-methylcyclopropyl)-3-[(1-methylpyrazol-4-yl)methyl]-2,4-dioxo-quinazoline-6-sulfonamide]: the pIC50 in the assay with PARG in HeLa cell line (setting [4]) was 7.10; on Human Full Length PARG (setting [3]), 7.22.

Consider `Cn1cc(Cn2c(=O)c3cc(S(=O)(=O)NC4(CF)CC4)ccc3n(Cc3cnn(C)n3)c2=O)cn1` [Example 596, N-[1-(Fluoromethyl)cyclopropyl]-3-[(1-methylpyrazol-4-yl)methyl]-1-[(2-methyltriazol-4-yl)methyl]-2,4-dioxo-quinazoline-6-sulfonamide], for which the pIC50 in the assay with PARG in HeLa cell line (setting [1]) is 7.02; on Human Full Length PARG (read-out: PARG Biochem IC50), 7.07.

Turning to `CN(C)CCCn1c(=O)n(Cc2cnn(C)c2)c(=O)c2cc(S(=O)(=O)NC3(C)CC3)ccc21` [Example 237], the pIC50 in the assay on PARG in HeLa cell line (setting [4]) was 6.55; on Human Full Length PARG (setting [3]), 6.63.

In the case of `Cc1nnc(Cn2c(=O)n(Cc3cnn(C)c3)c(=O)c3cc(S(=O)(=O)NC4(CF)CC4)ccc32)s1` [Example 583, N-[1-(Fluoromethyl)cyclopropyl]-3-[(1-methylpyrazol-4-yl)methyl]-1-[(5-methyl-1,3,4-thiadiazol-2-yl)methyl]-2,4-dioxo-quinazoline-6-sulfonamide], the negative logarithm of the IC50 (pIC50) with PARG in HeLa cell line (setting [1]) is 6.82; at Human Full Length PARG (read-out: PARG Biochem IC50), 7.03.

Consider `Cc1cc(Cn2c(=O)c3cc(S(=O)(=O)NC4(C)CC4)ccc3n(CC3CCCC3)c2=O)on1` [Example 289], for which the negative logarithm of the IC50 (pIC50) was 6.89 with PARG in HeLa cell line (setting [2]) and 6.55 at Human Full Length PARG (setting [3]).

As to `Cn1cc(Cn2c(=O)c3cc(S(=O)(=O)NC4(C)CC4)c(F)cc3n(CC3(C)COC3)c2=O)cn1` [Example 398, 7-Fluoro-3-((1-methyl-1H-pyrazol-4-yl)methyl)-N-(1-methylcyclopropyl)-1-((3-methyloxetan-3-yl)methyl)-2,4-dioxo-1,2,3,4-tetrahydroquinazoline-6-sulfonamide], the pIC50 with PARG in HeLa cell line (setting [1]) was 6.59; on Human Full Length PARG (read-out: PARG Biochem IC50), 7.36.

For `Cc1cc(Cn2c(=O)c3cc(S(=O)(=O)NC4(C)CC4)ccc3n(CC3(C#N)CC3)c2=O)on1` [Example 420, 1-[(1-Cyanocyclopropyl)methyl]-N-(1-methylcyclopropyl)-3-[(3-methylisoxazol-5-yl)methyl]-2,4-dioxo-quinazoline-6-sulfonamide], the pIC50 in the assay on PARG in HeLa cell line (setting [1]) is 6.79; on Human Full Length PARG (read-out: PARG Biochem IC50), 6.85.

Take `Cn1cc(Cc2cc3cc(S(=O)(=O)NC4(C)CC4)ccc3n(C)c2=O)cn1` [Example 491, 1-Methyl-N-(1-methylcyclopropyl)-3-[(1-methylpyrazol-4-yl)methyl]-2-oxo-quinoline-6-sulfonamide]: the pIC50 in the assay on PARG in HeLa cell line (setting [5]) is 5.75; on Human Full Length PARG (read-out: PARG Biochem IC50), 5.46.

Consider `Cc1cc(Cn2c(=O)c3cc(S(=O)(=O)NC4(C)CC4)ccc3n(CCCN3CCN(C)CC3)c2=O)on1` [Example 342], for which the pIC50 in the assay on PARG in HeLa cell line (setting [4]) is 6.07; at Human Full Length PARG (setting [3]), 6.51.

Consider `Cc1ncc(Cn2c(=O)c3cc(S(=O)(=O)NC4(C#N)CC4)ccc3n(CC3CC3)c2=O)s1` [Example 399, N-(1-Cyanocyclopropyl)-1-(cyclopropylmethyl)-3-[(2-methylthiazol-5-yl)methyl]-2,4-dioxo-quinazoline-6-sulfonamide], for which the results for the pIC50 with PARG in HeLa cell line (setting [1]) and on Human Full Length PARG (read-out: PARG Biochem IC50) were 7.06 and 7.51, respectively.

Turning to `Cc1cncc(Cn2c(=O)c3cc(S(=O)(=O)NC4(C)CC4)ccc3n(C)c2=O)c1` [Example 418, 1-Methyl-N-(1-methylcyclopropyl)-3-[(5-methyl-3-pyridyl)methyl]-2,4-dioxo-quinazoline-6-sulfonamide], the pIC50 was 5.68 in the assay with PARG in HeLa cell line (setting [1]) and 5.64 at Human Full Length PARG (read-out: PARG Biochem IC50).

For the compound `COCCCn1c(=O)n(Cc2cnn(C)c2)c(=O)c2cc(S(=O)(=O)NC3(C)CC3)ccc21` [Example 239], the pIC50 with PARG in HeLa cell line (setting [2]) was 6.90; on Human Full Length PARG (setting [3]), 6.68.

As for `Cc1cc(Cn2c(=O)c3cc(S(=O)(=O)NC4(CF)CC4)ccc3n(C(F)F)c2=O)on1` [Example 604, 1-(Difluoromethyl)-N-[1-(fluoromethyl)cyclopropyl]-3-[(3-methylisoxazol-5-yl)methyl]-2,4-dioxo-quinazoline-6-sulfonamide], the pIC50 is 6.53 with PARG in HeLa cell line (setting [1]) and 6.10 on Human Full Length PARG (read-out: PARG Biochem IC50).

Turning to `CC1(NS(=O)(=O)c2ccc3c(c2)c(=O)n(CC#N)c(=O)n3CC2CC2)CC1` [Example 193], the negative-log IC50 (pIC50) was 6.25 in the assay with PARG in HeLa cell line (setting [4]) and 6.56 on Human Full Length PARG (setting [3]).

Consider `C#CCn1c(=O)n(Cc2cc(C)no2)c(=O)c2cc(S(=O)(=O)NC3(CF)CC3)ccc21` [Example 532, N-[1-(Fluoromethyl)cyclopropyl]-3-[(3-methylisoxazol-5-yl)methyl]-2,4-dioxo-1-prop-2-ynyl-quinazoline-6-sulfonamide], for which the pIC50 in the assay on PARG in HeLa cell line (setting [5]) is 7.06; on Human Full Length PARG (read-out: PARG Biochem IC50) it was 6.92.

In the case of `Cc1cc(Cn2c(=O)c3cc(S(=O)(=O)NC4(CF)CC4)ccc3n(C)c2=O)on1` [Example 514, N-[1-(Fluoromethyl)cyclopropyl]-1-methyl-3-[(3-methylisoxazol-5-yl)methyl]-2,4-dioxo-quinazoline-6-sulfonamide], the results for the pIC50 with PARG in HeLa cell line (setting [1]) and at Human Full Length PARG (read-out: PARG Biochem IC50) were 6.75 and 6.42, respectively.

On to `Cn1cc(Cn2c(=O)c3cc(S(=O)(=O)NC4(CF)CC4)ccc3n(CC3CC3)c2=O)cn1` [Example 417, 1-(Cyclopropylmethyl)-N-[1-(fluoromethyl)cyclopropyl]-3-[(1-methylpyrazol-4-yl)methyl]-2,4-dioxo-quinazoline-6-sulfonamide], for which the values for the pIC50 in the assay on PARG in HeLa cell line (setting [1]) and on Human Full Length PARG (read-out: PARG Biochem IC50) were 7.38 and 7.40, respectively.

For `Cn1cc(Cn2c(=O)c3cc(S(=O)(=O)NC4(CF)CC4)ccc3n(Cc3c[nH]cn3)c2=O)cn1` [Example 575, N-[1-(Fluoromethyl)cyclopropyl]-1-(1H-imidazol-4-ylmethyl)-3-[(1-methylpyrazol-4-yl)methyl]-2,4-dioxo-quinazoline-6-sulfonamide], the pIC50 was 5.80 with PARG in HeLa cell line (setting [1]) and 7.06 on Human Full Length PARG (read-out: PARG Biochem IC50).

As to `Cc1ccnc(Cn2c(=O)n(Cc3cnn(C)c3)c(=O)c3cc(S(=O)(=O)NC4(CF)CC4)ccc32)c1` [Example 571, N-[1-(Fluoromethyl)cyclopropyl]-3-[(1-methylpyrazol-4-yl)methyl]-1-[(4-methyl-2-pyridyl)methyl]-2,4-dioxo-quinazoline-6-sulfonamide], the results for the pIC50 in the assay on PARG in HeLa cell line (setting [1]) and at Human Full Length PARG (read-out: PARG Biochem IC50) were 6.43 and 6.48, respectively.

As to `Cn1cc(Cn2c(=O)c3cc(S(=O)(=O)NC4(CF)CC4)ccc3n(CC(F)(F)F)c2=O)cn1` [Example 623, N-[1-(Fluoromethyl)cyclopropyl]-3-[(1-methylpyrazol-4-yl)methyl]-2,4-dioxo-1-(2,2,2-trifluoroethyl)quinazoline-6-sulfonamide], the pIC50 with PARG in HeLa cell line (setting [1]) is 5.00; on Human Full Length PARG (read-out: PARG Biochem IC50) it was 5.57.

Regarding `Cc1ccc(Cn2c(=O)c3cc(S(=O)(=O)NC4(C)CC4)ccc3n(C)c2=O)cn1` [Example 423, 1-Methyl-N-(1-methylcyclopropyl)-3-[(6-methyl-3-pyridyl)methyl]-2,4-dioxo-quinazoline-6-sulfonamide], the pIC50 in the assay on PARG in HeLa cell line (setting [1]) was 5.87; at Human Full Length PARG (read-out: PARG Biochem IC50) it was 5.80.

With `Cc1cc(Cn2c(=O)c3cc(S(=O)(=O)NC4(C)CC4)ccc3n(CC3CCC(=O)CC3)c2=O)on1` [Example 421, N-(1-Methylcyclopropyl)-3-[(3-methylisoxazol-5-yl)methyl]-2,4-dioxo-1-[(4-oxocyclohexyl)methyl]quinazoline-6-sulfonamide], the values for the negative-log IC50 (pIC50) in the assay with PARG in HeLa cell line (setting [5]) and at Human Full Length PARG (read-out: PARG Biochem IC50) were 6.23 and 6.71, respectively.

Take `CCc1nn(Cc2cc(C)no2)c(=O)c2cc(S(=O)(=O)NC3(C)CC3)ccc12` [Example 353]: the pIC50 was 6.24 in the assay with PARG in HeLa cell line (setting [4]) and 6.39 at Human Full Length PARG (setting [3]).

In the case of `Cc1ncc(Cn2c(=O)c3cc(S(=O)(=O)NC4(C#N)CC4)ccc3n(Cc3ccc(F)cc3)c2=O)s1` [Example 402, N-(1-Cyanocyclopropyl)-1-[(4-fluorophenyl)methyl]-3-[(2-methylthiazol-5-yl)methyl]-2,4-dioxo-quinazoline-6-sulfonamide], the pIC50 is 6.78 in the assay on PARG in HeLa cell line (setting [1]) and 7.18 at Human Full Length PARG (read-out: PARG Biochem IC50).

With `Cc1cc(Cn2c(=O)c3cc(S(=O)(=O)NC4(C)CC4)ccc3n(CCCN(C)C)c2=O)on1` [Example 247], the pIC50 was 6.51 with PARG in HeLa cell line (setting [4]) and 6.39 at Human Full Length PARG (setting [3]).
